Reference: article PMC5218480 (PLoS ONE, 2017)

Tested on: MV-4-11 cells
Assay: Gene expression microarray analysis (Affymetrix PrimeView) and GSEA
Format: cell-based, human
Design: RFU PODN (11730768_x_at) / Fold change /veh PODN (11730768_x_at) / RFU LINC00158 (11744669_a_at) / Fold change /veh LINC00158 (11744669_a_at) / RFU DUSP10 (11751237_a_at) / Fold change /veh DUSP10 (11751237_a_at) / RFU ID3 (11757404_x_at) / Fold change /veh ID3 (11757404_x_at) / RFU PLEKHG5 (11737974_s_at) / Fold change /veh PLEKHG5 (11737974_s_at) / RFU LRRC4B (11730491_at) / Fold change /veh LRRC4B (11730491_at) / RFU GIMAP4 (11747438_a_at) / Fold change /veh GIMAP4 (11747438_a_at) / RFU KRT8 (11758183_x_at) / Fold change /veh KRT8 (11758183_x_at) / RFU CNN1 (11734310_a_at) / Fold change /veh CNN1 (11734310_a_at) / RFU VPS37D (11726825_at) / Fold change /veh VPS37D (11726825_at) / RFU C10orf10 (11716522_x_at) / Fold change /veh C10orf10 (11716522_x_at) / RFU KIR2DL2 /// KIR2DL4 /// KIR2DL5A /// KIR2DL5B /// KIR2DS1 /// KIR2DS2 /// KIR2DS3 /// KIR2DS4 /// KIR3DL3 /// KIR3DL3 /// KIR3DS1 (11738374_at) / Fold change /veh KIR2DL2 /// KIR2DL4 /// KIR2DL5A /// KIR2DL5B /// KIR2DS1 /// KIR2DS2 /// KIR2DS3 /// KIR2DS4 /// KIR3DL3 /// KIR3DL3 /// KIR3DS1 (11738374_at) / RFU C1QL1 (11718748_at) / Fold change /veh C1QL1 (11718748_at) / RFU TMPRSS4 (11747572_a_at) / Fold change /veh TMPRSS4 (11747572_a_at) / RFU HAMP (11756126_x_at) / Fold change /veh HAMP (11756126_x_at) / RFU RNFT2 (11725882_a_at) / Fold change /veh RNFT2 (11725882_a_at) / RFU NR4A2 (11747474_a_at) / Fold change /veh NR4A2 (11747474_a_at) / RFU ABCC12 (11746883_a_at) / Fold change /veh ABCC12 (11746883_a_at) / RFU TMEM136 (11760407_x_at) / Fold change /veh TMEM136 (11760407_x_at) / RFU CLDN22 /// WWC2 (11732394_at) / Fold change /veh CLDN22 /// WWC2 (11732394_at) / RFU HLA-DPB1 (11760878_x_at) / Fold change /veh HLA-DPB1 (11760878_x_at) / RFU SPINT1 (11716480_a_at) / Fold change /veh SPINT1 (11716480_a_at) / RFU GAP43 (11754022_s_at) / Fold change /veh GAP43 (11754022_s_at) / RFU A4GNT (11735810_at) / Fold change /veh A4GNT (11735810_at) / RFU PRB3 (11715151_x_at) / Fold change /veh PRB3 (11715151_x_at) / RFU TUBB4B (11761932_at) / Fold change /veh TUBB4B (11761932_at) / RFU CAPN14 (11732068_a_at) / Fold change /veh CAPN14 (11732068_a_at) / RFU TMCC2 (11721928_a_at) / Fold change /veh TMCC2 (11721928_a_at) / RFU IRGQ (11745062_a_at) / Fold change /veh IRGQ (11745062_a_at) / RFU FAM174B (11720279_a_at) / Fold change /veh FAM174B (11720279_a_at) / RFU TMPRSS4 (11748680_a_at) / Fold change /veh TMPRSS4 (11748680_a_at) / RFU FAM212B (11763350_a_at) / Fold change /veh FAM212B (11763350_a_at) / RFU PLEKHG5 (11743358_a_at) / Fold change /veh PLEKHG5 (11743358_a_at) / RFU ZSCAN30 (11745921_a_at) / Fold change /veh ZSCAN30 (11745921_a_at) / RFU CMKLR1 (11741424_a_at) / Fold change /veh CMKLR1 (11741424_a_at) / RFU LOC101060620 /// MAPK8IP1 (11723275_at) / Fold change /veh LOC101060620 /// MAPK8IP1 (11723275_at) / RFU SPTSSB (11747773_x_at) / Fold change /veh SPTSSB (11747773_x_at) / RFU PRSS12 (11739890_at) / Fold change /veh PRSS12 (11739890_at) / RFU BIN1 (11741810_x_at) / Fold change /veh BIN1 (11741810_x_at) / RFU WNT11 (11732464_a_at) / Fold change /veh WNT11 (11732464_a_at) / RFU C10orf10 (11716521_a_at) / Fold change /veh C10orf10 (11716521_a_at) / RFU C5orf56 (11738089_at) / Fold change /veh C5orf56 (11738089_at) / RFU CYB561 (11721691_x_at) / Fold change /veh CYB561 (11721691_x_at) / RFU ANKRD19P (11752326_a_at) / Fold change /veh ANKRD19P (11752326_a_at) / RFU OR2T12 /// OR2T33 /// OR2T8 (11738714_s_at) / Fold change /veh OR2T12 /// OR2T33 /// OR2T8 (11738714_s_at) / RFU VCAN (11748164_a_at) / Fold change /veh VCAN (11748164_a_at) / RFU JSRP1 (11732532_at) / Fold change /veh JSRP1 (11732532_at) / RFU KRTAP10-11 (11738290_x_at) / Fold change /veh KRTAP10-11 (11738290_x_at) / RFU MYO3A (11730013_a_at) / Fold change /veh MYO3A (11730013_a_at) / RFU EBF3 (11725865_a_at) / Fold change /veh EBF3 (11725865_a_at) / RFU CAMK2N1 (11719241_x_at) / Fold change /veh CAMK2N1 (11719241_x_at) / RFU C5orf56 (11738088_a_at) / Fold change /veh C5orf56 (11738088_a_at) / RFU OLFML3 (11715873_a_at) / Fold change /veh OLFML3 (11715873_a_at) / RFU LOC100653217 /// NTM (11731650_a_at) / Fold change /veh LOC100653217 /// NTM (11731650_a_at) / RFU MAPK11 (11762145_a_at) / Fold change /veh MAPK11 (11762145_a_at) / RFU FIZ1 (11724087_x_at) / Fold change /veh FIZ1 (11724087_x_at) / RFU OASL (11726364_x_at) / Fold change /veh OASL (11726364_x_at) / RFU SOX15 (11748057_x_at) / Fold change /veh SOX15 (11748057_x_at) / RFU CD79A (11719716_a_at) / Fold change /veh CD79A (11719716_a_at) / RFU HIST1H1D (11736915_at) / Fold change /veh HIST1H1D (11736915_at) / RFU CASKIN2 (11723855_a_at) / Fold change /veh CASKIN2 (11723855_a_at) / RFU LOC730098 (11760151_x_at) / Fold change /veh LOC730098 (11760151_x_at) / RFU OR4N2 (11742367_at) / Fold change /veh OR4N2 (11742367_at) / RFU PRRT2 (11749266_a_at) / Fold change /veh PRRT2 (11749266_a_at) / RFU SNX32 (11753110_a_at) / Fold change /veh SNX32 (11753110_a_at) / RFU CDHR5 (11726645_a_at) / Fold change /veh CDHR5 (11726645_a_at) / RFU RCAN1 (11760418_a_at) / Fold change /veh RCAN1 (11760418_a_at) / RFU FAM167A (11723789_a_at) / Fold change /veh FAM167A (11723789_a_at) / RFU FAM26E (11764081_at) / Fold change /veh FAM26E (11764081_at) / RFU ISYNA1 (11749810_s_at) / Fold change /veh ISYNA1 (11749810_s_at) / RFU ACY1 (11761880_at) / Fold change /veh ACY1 (11761880_at) / RFU 11764098_at / Fold change /veh 11764098_at / RFU SAMD14 (11745864_x_at) / Fold change /veh SAMD14 (11745864_x_at) / RFU NPB (11741838_a_at) / Fold change /veh NPB (11741838_a_at) / RFU TMPRSS6 (11731388_a_at) / Fold change /veh TMPRSS6 (11731388_a_at) / RFU KRTAP10-2 (11738614_at) / Fold change /veh KRTAP10-2 (11738614_at) / RFU ARHGAP8 /// PRR5-ARHGAP8 (11727945_x_at) / Fold change /veh ARHGAP8 /// PRR5-ARHGAP8 (11727945_x_at) / RFU KRTAP5-7 /// NADSYN1 (11734609_at) / Fold change /veh KRTAP5-7 /// NADSYN1 (11734609_at) / RFU RASL12 (11751679_a_at) / Fold change /veh RASL12 (11751679_a_at) / RFU CDKN2B (11736163_a_at) / Fold change /veh CDKN2B (11736163_a_at) / RFU PRF1 (11729649_at) / Fold change /veh PRF1 (11729649_at) / RFU, ZNF638 /// ZNF638-IT1 / Fold change vs veh, ZNF638 /// ZNF638-IT1 / RFU, PANK3 / Fold change vs veh, PANK3 / RFU, SH3YL1 / Fold change vs veh, SH3YL1 / RFU, ZEB2 / Fold change vs veh, ZEB2 / RFU, NRIP1 / Fold change vs veh, NRIP1 / RFU, PTTG1IP / Fold change vs veh, PTTG1IP / RFU, CAPN2 / Fold change vs veh, CAPN2 / RFU, MED14 / Fold change vs veh, MED14 / RFU, SNORA58 / Fold change vs veh, SNORA58 / RFU, C1orf63 / Fold change vs veh, C1orf63 / RFU, LRRFIP1 / Fold change vs veh, LRRFIP1 / RFU, NDUFAF7 / Fold change vs veh, NDUFAF7 / RFU, SLC12A2 / Fold change vs veh, SLC12A2 / RFU, IBTK / Fold change vs veh, IBTK / RFU, ESF1 / Fold change vs veh, ESF1 / Fold change vs veh, TMEM50B / RFU, TAOK1 / Fold change vs veh, TAOK1 / RFU, ACBD3 / Fold change vs veh, ACBD3 / RFU, TMA16 / Fold change vs veh, TMA16 / RFU, RWDD3 / Fold change vs veh, RWDD3 / RFU, BCAT1 / Fold change vs veh, BCAT1 / RFU, EDEM3 / Fold change vs veh, EDEM3 / RFU, TMEM33 / Fold change vs veh, TMEM33 / RFU, WDR75 / Fold change vs veh, WDR75 / RFU, AHCTF1 / Fold change vs veh, AHCTF1 / RFU, TFRC / Fold change vs veh, TFRC / RFU, ZDHHC17 / Fold change vs veh, ZDHHC17 / RFU, NOM1 / Fold change vs veh, NOM1 / RFU, ARL8B / Fold change vs veh, ARL8B / RFU, ZBTB11 / Fold change vs veh, ZBTB11 / RFU, TAMM41 / Fold change vs veh, TAMM41 / RFU, KIAA1704 /// LOC100996395 / Fold change vs veh, KIAA1704 /// LOC100996395 / RFU, ING1 / Fold change vs veh, ING1 / RFU, TRMT61B / Fold change vs veh, TRMT61B / RFU, FUBP3 / Fold change vs veh, FUBP3 / RFU, TP53 / Fold change vs veh, TP53 / RFU, TNKS2 / Fold change vs veh, TNKS2 / RFU, ZFP14 / Fold change vs veh, ZFP14 / RFU, ACTR2 / Fold change vs veh, ACTR2 / RFU, PPP3R1 / Fold change vs veh, PPP3R1 / RFU, PIK3R1 / Fold change vs veh, PIK3R1 / RFU, HNRNPA1 / Fold change vs veh, HNRNPA1 / RFU, RNF170 / Fold change vs veh, RNF170 / RFU, ZNF28 / Fold change vs veh, ZNF28 / RFU, RNGTT / Fold change vs veh, RNGTT / RFU, OGT / Fold change vs veh, OGT / RFU, BRD1 / Fold change vs veh, BRD1 / RFU, MARS / Fold change vs veh, MARS / RFU, ZNF655 / Fold change vs veh, ZNF655 / RFU, FAHD1 / Fold change vs veh, FAHD1 / RFU, BDP1 / Fold change vs veh, BDP1 / RFU, LRRCC1 / Fold change vs veh, LRRCC1 / RFU, ARID1A / Fold change vs veh, ARID1A / RFU, ZNF146 / Fold change vs veh, ZNF146 / RFU, ZNF330 / Fold change vs veh, ZNF330 / RFU, GPN3 / Fold change vs veh, GPN3 / RFU, C9orf123 / Fold change vs veh, C9orf123 / RFU, N4BP2L2 / Fold change vs veh, N4BP2L2 / RFU, ARFIP1 / Fold change vs veh, ARFIP1 / RFU, FAM179B / Fold change vs veh, FAM179B / RFU, BCL10 / Fold change vs veh, BCL10 / RFU, UHRF1BP1L / Fold change vs veh, UHRF1BP1L / RFU, BET1 / Fold change vs veh, BET1 / RFU, CNOT2 / Fold change vs veh, CNOT2 / RFU, ZNF268 / Fold change vs veh, ZNF268 / Fold change vs veh, ZNF507 / RFU, DGCR2 / Fold change vs veh, DGCR2 / RFU, WDSUB1 / Fold change vs veh, WDSUB1 / Fold change vs veh, HSP90B1 /// MIR3652 / RFU, ADSS / Fold change vs veh, ADSS / RFU, GK / Fold change vs veh, GK / RFU, ZNF148 / Fold change vs veh, ZNF148 / RFU, TAF9 / Fold change vs veh, TAF9 / RFU, SLC1A5 / Fold change vs veh, SLC1A5 / RFU, SLMO2 / Fold change vs veh, SLMO2 / RFU, ABCC4 / Fold change vs veh, ABCC4 / RFU, LOC101060439 /// RAP1B / Fold change vs veh, LOC101060439 /// RAP1B / RFU, RFX7 / Fold change vs veh, RFX7 / RFU, GTPBP10 / Fold change vs veh, GTPBP10 / RFU, CNEP1R1 / Fold change vs veh, CNEP1R1 / RFU, BIVM-ERCC5 /// ERCC5 / Fold change vs veh, BIVM-ERCC5 /// ERCC5 / RFU, ILF3 / Fold change vs veh, ILF3 / RFU 11762660_at / Fold change /veh 11762660_at / RFU VCAN (11757783_s_at) / Fold change /veh VCAN (11757783_s_at) / RFU DDX43 (11728927_at) / Fold change /veh DDX43 (11728927_at) / RFU KRT8 (11758188_x_at) / Fold change /veh KRT8 (11758188_x_at) / RFU NKD1 (11759106_at) / Fold change /veh NKD1 (11759106_at) / RFU SRD5A1 (11742802_a_at) / Fold change /veh SRD5A1 (11742802_a_at) / RFU TPSAB1 /// TPSB2 (11721975_s_at) / Fold change /veh TPSAB1 /// TPSB2 (11721975_s_at) / RFU GSTM3 (11746129_a_at) / Fold change /veh GSTM3 (11746129_a_at) / RFU IL23R (11737362_x_at) / Fold change /veh IL23R (11737362_x_at) / RFU TMEM51 (11727254_a_at) / Fold change /veh TMEM51 (11727254_a_at) / RFU PIWIL2 (11732686_x_at) / Fold change /veh PIWIL2 (11732686_x_at) / RFU ORM1 (11744905_x_at) / Fold change /veh ORM1 (11744905_x_at) / RFU CCDC152 (11743942_at) / Fold change /veh CCDC152 (11743942_at) / RFU ECM1 (11717891_a_at) / Fold change /veh ECM1 (11717891_a_at) / RFU IL23R (11748794_a_at) / Fold change /veh IL23R (11748794_a_at) / RFU TNFAIP8L3 (11732012_x_at) / Fold change /veh TNFAIP8L3 (11732012_x_at) / RFU MBOAT4 (11741988_at) / Fold change /veh MBOAT4 (11741988_at) / RFU 11764193_at / Fold change /veh 11764193_at / RFU TMEM53 (11763286_at) / Fold change /veh TMEM53 (11763286_at) / RFU MAGEB2 (11727129_at) / Fold change /veh MAGEB2 (11727129_at) / RFU TMEM200A (11744735_a_at) / Fold change /veh TMEM200A (11744735_a_at) / RFU CCDC152 (11751479_a_at) / Fold change /veh CCDC152 (11751479_a_at) / RFU FAM211A (11726209_a_at) / Fold change /veh FAM211A (11726209_a_at) / RFU RGS16 (11746705_a_at) / Fold change /veh RGS16 (11746705_a_at) / RFU VCAN (11755009_s_at) / Fold change /veh VCAN (11755009_s_at) / RFU RHOB (11743442_s_at) / Fold change /veh RHOB (11743442_s_at) / RFU RGS16 (11720943_a_at) / Fold change /veh RGS16 (11720943_a_at) / RFU RGS16 (11720944_at) / Fold change /veh RGS16 (11720944_at) / RFU, VPS4B / Fold change vs veh, VPS4B / RFU, CREB1 / Fold change vs veh, CREB1 / RFU, DNAJC13 / Fold change vs veh, DNAJC13 / RFU, GNAQ / Fold change vs veh, GNAQ / RFU, CDK5R1 / Fold change vs veh, CDK5R1 / RFU, ZRANB3 / Fold change vs veh, ZRANB3 / RFU, CUL4A / Fold change vs veh, CUL4A / RFU, CCNY / Fold change vs veh, CCNY / RFU, UFL1 / Fold change vs veh, UFL1 / RFU, COG3 / Fold change vs veh, COG3 / RFU, DIAPH2 / Fold change vs veh, DIAPH2 / RFU, SKA2 / Fold change vs veh, SKA2 / RFU, AFF3 / Fold change vs veh, AFF3 / RFU, LMF1 / Fold change vs veh, LMF1 / RFU, IPO11 / Fold change vs veh, IPO11 / RFU, DFFB / Fold change vs veh, DFFB / RFU, FOXP1 / Fold change vs veh, FOXP1 / RFU, CARD8 / Fold change vs veh, CARD8 / RFU, STRN3 / Fold change vs veh, STRN3 / RFU, ADK / Fold change vs veh, ADK / RFU, RASSF2 / Fold change vs veh, RASSF2 / RFU, WIPF1 / Fold change vs veh, WIPF1 / RFU, LARP1B / Fold change vs veh, LARP1B / RFU, RASA1 / Fold change vs veh, RASA1 / RFU, RB1 / Fold change vs veh, RB1 / RFU, PPFIA1 / Fold change vs veh, PPFIA1 / RFU, MAT2A / Fold change vs veh, MAT2A / RFU, CCT5 / Fold change vs veh, CCT5 / RFU, WDR92 / Fold change vs veh, WDR92 / RFU, CUX1 / Fold change vs veh, CUX1 / RFU, TTC7A / Fold change vs veh, TTC7A / RFU, TMEM135 / Fold change vs veh, TMEM135 / RFU, DEPTOR / Fold change vs veh, DEPTOR / RFU, CPM / Fold change vs veh, CPM / RFU, DNAJB6 / Fold change vs veh, DNAJB6 / RFU, CACNA2D3 / Fold change vs veh, CACNA2D3 / RFU, DTX4 / Fold change vs veh, DTX4 / RFU, TFCP2 / Fold change vs veh, TFCP2 / RFU, GMCL1 /// GMCL1P1 / Fold change vs veh, GMCL1 /// GMCL1P1 / RFU, AEBP2 / Fold change vs veh, AEBP2 / RFU, SNHG1 /// SNORD22 /// SNORD25 /// SNORD26 /// SNORD27 /// SNORD28 /// SNORD29 /// SNORD31 / Fold change vs veh, SNHG1 /// SNORD22 /// SNORD25 /// SNORD26 /// SNORD27 /// SNORD28 /// SNORD29 /// SNORD31 / Fold change (Aza/veh), C12orf56 (ProbeSet 11735607_a_at) / Fold change (ACY-1035/veh), C12orf56 (ProbeSet 11735607_a_at) / Fold change (Aza/veh), FGFR1OP (ProbeSet 11751329_s_at) / Fold change (ACY-1035/veh), FGFR1OP (ProbeSet 11751329_s_at) / Fold change (Aza/veh), VPS36 (ProbeSet 11739960_a_at) / Fold change (ACY-1035/veh), VPS36 (ProbeSet 11739960_a_at) / RFU SYPL1 (11715823_x_at) / Fold change /veh SYPL1 (11715823_x_at) / RFU IGFBP7 (11715501_s_at) / Fold change /veh IGFBP7 (11715501_s_at) / RFU REEP3 (11722064_at) / Fold change /veh REEP3 (11722064_at) / RFU IGLL1 (11728026_x_at) / Fold change /veh IGLL1 (11728026_x_at): dose or concentration left out as unconfirmed
Conditions: MV-4-11 cells, 48 hours

For Nc1ncn([C@@H]2O[C@H](CO)[C@@H](O)[C@H]2O)c(=O)n1 [azacitidine], the “Fold change /veh VCAN (11755009_s_at)” value was 1.97.
